Experimental data taken from patent publication US20030215462A1, “Use of UGT inhibitors to increase bioavailability” (priority 2001, published 2003).
Where “and” joins values, the source holds several entries; their conditions need not be identical. Equal values may be shown once. Read-outs that look alike come from different tables or passages of the source.

How the values were obtained:
[1] = system: UGT enzymes of human liver microsomes; test: Inhibition of 7-HFC glucuronidation in human liver microsomes; format: biochemical; settings: 7-HFC 50 μM, human liver microsomes 100 μg/ml, 15 min
[2] = system: T1, UGT enzymes of human liver microsomes; test: as above; format: biochemical; settings: for % of control metabolism (SD, n = 3), 7-HFC glucuronidation: 7-HFC 50 μM, human liver microsomes 100 μg/ml, 15 min
T1 construct: percentage of control metabolism, 7-HFC glucuronidation; percentage of control metabolism, 7-HFC glucuronidation

[3] = system: UGT enzymes of human liver microsomes; test: Inhibition of raloxifene glucuronidation (G1, G2) in human liver microsomes; format: biochemical
Text: Compounds were eluted using a binary solvent gradient system. […] Solvent B was methanol. […] Detection was at 280 nm.

[4] = system: T2, UGT enzymes of human liver microsomes; test: Inhibition of 2ME2 glucuronidation (MG1, MG2) in human liver microsomes; format: biochemical; settings: liver 062101, 2ME2 50 μM
T2 construct: other: liver 062101
Text: (§1) Compounds were eluted using a binary solvent gradient system where solvent A was dilute phosphoric acid (pH 3) and solvent B was 80:20 acetonitrile-methanol. […] Detection was at 280 nm.

[5] = target: T3, UGT enzymes of human liver microsomes (Homo sapiens, UniProt P16662); test: Inhibition of zidovudine glucuronidation in human liver microsomes; format: biochemical; settings: liver lot 062101
T3 construct: residual metabolism (percentage of control), zidovudine glucuronidation; other: liver lot 062101; residual metabolism (percentage of control), zidovudine glucuronidation; residual metabolism (percentage of control)
T3 sequence (P16662 1-529): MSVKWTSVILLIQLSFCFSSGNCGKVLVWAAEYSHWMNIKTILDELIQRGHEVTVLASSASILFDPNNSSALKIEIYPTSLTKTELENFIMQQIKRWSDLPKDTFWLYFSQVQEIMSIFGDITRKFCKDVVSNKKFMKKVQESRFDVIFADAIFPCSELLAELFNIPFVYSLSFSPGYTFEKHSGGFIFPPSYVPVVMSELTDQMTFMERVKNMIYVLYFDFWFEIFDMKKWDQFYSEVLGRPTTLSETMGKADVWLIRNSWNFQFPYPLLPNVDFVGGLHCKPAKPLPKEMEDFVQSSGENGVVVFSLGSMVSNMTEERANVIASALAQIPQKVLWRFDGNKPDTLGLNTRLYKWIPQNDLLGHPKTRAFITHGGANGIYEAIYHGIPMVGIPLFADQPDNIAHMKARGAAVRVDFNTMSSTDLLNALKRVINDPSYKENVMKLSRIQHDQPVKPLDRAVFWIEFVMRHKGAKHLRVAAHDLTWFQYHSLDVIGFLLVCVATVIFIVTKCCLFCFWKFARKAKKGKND
Method: Compounds were eluted using a binary solvent gradient system where solvent A was dilute phosphoric acid (pH 3) and solvent B was acetonitrile.
Standardized incubations utilized 500 μM zidovudine substrate, 1 mg/ml microsomal protein, 5 mM UDPGA and a 30 min incubation time. […] Int.

UGT1A1 = target: T4, UGT1A1 (Homo sapiens, UniProt P22309); test: Inhibition of raloxifene glucuronidation by recombinant UGT1A1 Supersomes; settings: for Inhibition of raloxifene glucuronidation, G1, UGT1A1 / Inhibition of raloxifene glucuronidation, G2, UGT1A1: raloxifene 50 μM, 250 μg/ml Supersomes, 1 mM UDPGA, 15 min; for % of control metabolism, raloxifene G1 / % of control metabolism, raloxifene G2: UGT1A1
T4 sequence (P22309 26-533): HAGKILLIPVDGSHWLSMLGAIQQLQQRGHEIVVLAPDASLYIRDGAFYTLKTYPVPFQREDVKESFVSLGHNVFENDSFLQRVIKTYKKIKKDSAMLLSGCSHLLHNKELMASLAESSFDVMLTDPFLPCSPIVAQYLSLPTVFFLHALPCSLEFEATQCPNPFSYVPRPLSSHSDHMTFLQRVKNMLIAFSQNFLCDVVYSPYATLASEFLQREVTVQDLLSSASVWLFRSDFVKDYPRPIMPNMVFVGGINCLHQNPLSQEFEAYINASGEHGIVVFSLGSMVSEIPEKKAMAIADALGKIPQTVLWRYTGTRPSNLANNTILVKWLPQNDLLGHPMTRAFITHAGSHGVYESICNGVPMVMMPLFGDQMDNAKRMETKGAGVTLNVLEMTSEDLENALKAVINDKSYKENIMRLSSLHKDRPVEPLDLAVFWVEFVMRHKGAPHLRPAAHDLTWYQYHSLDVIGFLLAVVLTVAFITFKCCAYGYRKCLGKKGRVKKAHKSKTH
Method: Compounds were eluted using a binary solvent gradient system. Solvent A was water brought to pH 8 with NH4OH. Solvent B was methanol. Solvent flow rate was 1 ml/min and the column temperature was maintained at 50° C. Detection was at 280 nm. […] The system was then returned to the initial conditions and equilibrated for 3 min.

[6] = system: UGT enzymes of pooled human jejunum microsomes; test: Inhibition of 2ME2 glucuronidation (MG1) in pooled human jejunum microsomes; format: biochemical; settings: jejunum HJ61, 2ME2 50 μM
Text: as §1

[7] = system: UGT enzymes of pooled human jejunum microsomes; test: Inhibition of zidovudine glucuronidation in pooled human jejunum microsomes; format: biochemical
Method: Increasing the microsomal protein concentration to 1 mg/ml and extending the incubation time to 60 min provided meaningful metabolite levels for inhibition studies.

[8] = humans; cited from earlier work
[9] = G1, inhibitor 500 μM, raloxifene 50 μM, human liver microsomes 250 μg/ml, 15 min
[10] = G2, inhibitor 500 μM, raloxifene 50 μM, human liver microsomes 250 μg/ml, 15 min
[11] = inhibitor column headed only "μM" (between 25 μM and 5 μM)
[12] = raloxifene 50 μM, inhibitor 25 μM
[13] = raloxifene 50 μM, inhibitor 50 μM
[14] = raloxifene 50 μM, inhibitor 100 μM

CC(=O)OC1CC(C)CCC1C(C)C (single isomer, unassigned; (-)) [(−)-Menthyl acetate]
% of control metabolism (SD, n = 3), 7-HFC glucuronidation ([1]; inhibitor 1000 μM): 32 (1) % | % of control metabolism (SD, n = 3), 7-HFC glucuronidation ([1]; inhibitor 2000 μM): 26 (1) % | % of control metabolism (SD, n = 3), 7-HFC glucuronidation ([2]; inhibitor 100 μM): 86 (2) % | % of control metabolism (SD, n = 3), 7-HFC glucuronidation ([2]; inhibitor 200 μM): 72 (2) % | % of control metabolism (SD, n = 3), 7-HFC glucuronidation ([2]; inhibitor 500 μM): 53 (2), % and 53 (1) % | % of control metabolism (SD, n = 3), raloxifene glucuronide G1 [3, 9]: 76 (1) % | % of control metabolism (SD, n = 3), raloxifene glucuronide G2 [3, 10]: 69 (0) %

C#C[C@]1(O)CC[C@H]2[C@@H]3CCc4cc(O)ccc4[C@H]3CC[C@@]21C [17-α-Ethinylestradiol, 17-α-ethinylestradiol, reference compound]
residual metabolism (% of control), 2ME2 MG1 ([4]; inhibitor 25 μM): 74 (1) % | residual metabolism (% of control), 2ME2 MG2 ([4]; inhibitor 25 μM): 62 (1) % | residual metabolism (% of control), 2ME2 MG1 ([4]; inhibitor 50 μM): 64 (2) % | residual metabolism (% of control), 2ME2 MG2 ([4]; inhibitor 50 μM): 41 (3) % | residual metabolism (% of control), 2ME2 MG1 ([4]; inhibitor 100 μM): 48 (0) % | residual metabolism (% of control), 2ME2 MG2 ([4]; inhibitor 100 μM): 4 (0) % | residual metabolism (percentage of control), zidovudine glucuronidation ([5]; inhibitor 50 μM): 54 (2) % | residual metabolism (percentage of control), zidovudine glucuronidation ([5]; inhibitor 100 μM): 40 (2) % | residual metabolism (percentage of control), zidovudine glucuronidation ([5]; inhibitor 200 μM): 24 (1) % | residual metabolism (percentage of control), zidovudine glucuronidation ([5]; inhibitor 500 μM): 13 (1) % and 10 (1) % | Inhibition of raloxifene glucuronidation, G1, UGT1A1 (UGT1A1; inhibitor 25 μM): 53 (0) | Inhibition of raloxifene glucuronidation, G1, UGT1A1 (UGT1A1; inhibitor 50 μM): 33 (1) | Inhibition of raloxifene glucuronidation, G1, UGT1A1 (UGT1A1; [11]): 81 (0) | Inhibition of raloxifene glucuronidation, G2, UGT1A1 (UGT1A1; inhibitor 25 μM): 72 (1) | Inhibition of raloxifene glucuronidation, G2, UGT1A1 (UGT1A1; inhibitor 50 μM): 58 (3) | Inhibition of raloxifene glucuronidation, G2, UGT1A1 (UGT1A1; [11]): 91 (1) | % of control metabolism, raloxifene G1 (UGT1A1; inhibitor 25 μM): 53 (0) % | % of control metabolism, raloxifene G2 (UGT1A1; inhibitor 25 μM): 72 (1) % | % of control metabolism, raloxifene G1 (UGT1A1; inhibitor 50 μM): 33 (1) % | % of control metabolism, raloxifene G2 (UGT1A1; inhibitor 50 μM): 58 (3) % | percentage of control metabolism, 7-HFC glucuronidation ([2]; inhibitor 500 μM): 72 (1) % | % of control metabolism (SD, n = 3), 7-HFC glucuronidation ([2]; inhibitor 500 μM): 72 (1) % | % of control metabolism (SD, n = 3), raloxifene glucuronide G1 ([3]; G1, inhibitor 25 μM, raloxifene 50 μM, human liver microsomes 250 μg/ml, 15 min): 66 (3) % | % of control metabolism (SD, n = 3), raloxifene glucuronide G1 ([3]; G1, inhibitor 50 μM, raloxifene 50 μM, human liver microsomes 250 μg/ml, 15 min): 42 (2) % | % of control metabolism (SD, n = 3), raloxifene glucuronide G1 ([3]; G1, inhibitor 100 μM, raloxifene 50 μM, human liver microsomes 250 μg/ml, 15 min): 31 (2) % | % of control metabolism (SD, n = 3), raloxifene glucuronide G1 [3, 9]: 2 (0) % | % of control metabolism (SD, n = 3), raloxifene glucuronide G2 ([3]; G2, inhibitor 25 μM, raloxifene 50 μM, human liver microsomes 250 μg/ml, 15 min): 80 (3) % | % of control metabolism (SD, n = 3), raloxifene glucuronide G2 ([3]; G2, inhibitor 50 μM, raloxifene 50 μM, human liver microsomes 250 μg/ml, 15 min): 60 (2) % | % of control metabolism (SD, n = 3), raloxifene glucuronide G2 ([3]; G2, inhibitor 100 μM, raloxifene 50 μM, human liver microsomes 250 μg/ml, 15 min): 56 (3) % | % of control metabolism (SD, n = 3), raloxifene glucuronide G2 [3, 10]: 6 (0) % | % of control metabolism, raloxifene G1 [3, 12]: 66 (3) % | % of control metabolism, raloxifene G2 [3, 12]: 80 (3) % | % of control metabolism, raloxifene G1 [3, 13]: 42 (2) % | % of control metabolism, raloxifene G2 [3, 13]: 60 (2) % | % of control metabolism, raloxifene G1 [3, 14]: 31 (2) % | % of control metabolism, raloxifene G2 [3, 14]: 56 (3) % | residual metabolism (% of control), 2ME2 MG1 ([6]; inhibitor 50 μM): 109 (5) % | residual metabolism (% of control), 2ME2 MG1 ([6]; inhibitor 100 μM): 99 (2) % | residual metabolism (percentage of control), zidovudine ([7]; inhibitor 100 μM): 30 (1) %

CC(C)[C@@H]1CC[C@@H](C)C[C@H]1O [(L)-Menthol]
% of control metabolism (SD, n = 3), 7-HFC glucuronidation ([1]; inhibitor 1000 μM): 72 (1) % | % of control metabolism (SD, n = 3), 7-HFC glucuronidation ([1]; inhibitor 2000 μM): 53 (0) % | % of control metabolism (SD, n = 3), 7-HFC glucuronidation ([2]; inhibitor 500 μM): 75 (2), % and 80 (2) % | % of control metabolism (SD, n = 3), raloxifene glucuronide G1 [3]: 108 (4) % | % of control metabolism (SD, n = 3), raloxifene glucuronide G2 [3]: 97 (2) %

CC1CCC(C(C)C)C(O)C1 (stereo not shown) [Menthol]
residual metabolism (% of control), 2ME2 MG1 ([4]; inhibitor 50 μM): 96 (2) % | residual metabolism (% of control), 2ME2 MG2 ([4]; inhibitor 50 μM): 86 (1) % | residual metabolism (% of control), 2ME2 MG1 ([4]; inhibitor 100 μM): 92 (2) % | residual metabolism (% of control), 2ME2 MG2 ([4]; inhibitor 100 μM): 74 (3) % | residual metabolism (percentage of control), zidovudine glucuronidation ([5]; inhibitor 200 μM): 63 (6) % | residual metabolism (percentage of control), zidovudine glucuronidation ([5]; inhibitor 500 μM): 43 (1) % and 37 (4) % | residual metabolism (percentage of control), zidovudine glucuronidation ([5]; inhibitor 1000 μM): 25 (2) % | residual metabolism (% of control), 2ME2 MG1 ([6]; inhibitor 50 μM): 98 (4) % | residual metabolism (% of control), 2ME2 MG1 ([6]; inhibitor 100 μM): 125 (7) % | residual metabolism (percentage of control), zidovudine ([7]; inhibitor 500 μM): 32 (3) %

O=C(O)c1ccccc1O [Salicylic acid]
% of control metabolism (SD, n = 3), 7-HFC glucuronidation ([1]; inhibitor 1000 μM): 47 (1) % | % of control metabolism (SD, n = 3), 7-HFC glucuronidation ([1]; inhibitor 2000 μM): 35 (1) % | % of control metabolism (SD, n = 3), 7-HFC glucuronidation ([2]; inhibitor 100 μM): 84 (1) % | % of control metabolism (SD, n = 3), 7-HFC glucuronidation ([2]; inhibitor 200 μM): 75 (2) % | % of control metabolism (SD, n = 3), 7-HFC glucuronidation ([2]; inhibitor 500 μM): 64 (0), % and 63 (1) % | % of control metabolism (SD, n = 3), raloxifene glucuronide G1 [3, 9]: 92 (2) % | % of control metabolism (SD, n = 3), raloxifene glucuronide G2 [3, 10]: 94 (2) %

C[C@H](CCc1ccccc1)NC[C@H](O)c1ccc(O)c(C(N)=O)c1 [dilevalol]
absolute oral bioavailability [8]: 11-29%

CCc1c2c(nc3ccc(OC(=O)N4CCC(N5CCCCC5)CC4)cc13)-c1cc3c(c(=O)n1C2)COC(=O)[C@]3(O)CC [irinotecan]
absolute oral bioavailability [8]: approximately 13%
